Data from US8038984B2, “Membrane-permeant peptide complexes for treatment of sepsis” (Washington University, priority 1998, dated 2011).
Square brackets hold non-standard residues; d marks the D form. Ends that are not written are not given here. dOrn = NCCC[C@@H](N)C(=O)O; βAla = NCCC(=O)O

Experiments:
human lymphocytes [1] = assay: Laser scanning confocal microscopy of internalization into human lymphocytes; format: cell-based; conditions: 1 μM
Method: Freshly isolated human lymphocytes were incubated with fluorescently labeled Tat-BH4 peptide to confirm intracellular localization of the functional permeant peptide. For labeling, cells were suspended for 30 minutes in modified Earl's balanced salt solution containing 1 μM of the fluorescently labeled TAT-BH4. Control cells were treated identically except no labeled TAT-BH4 was added. Following fixation for 10 minutes in 4% paraformaldehyde, cells were analyzed for peptide internalization via detection of fluorescence by confocal microscopy using an inverted Zeiss Axiovert 200 laser scanning confocal microscope couple to a Zeiss LSM 5 PASCAL fitted with a 488 nm excitation Argon laser and a 520 nm bandpass emission filter. All images were obtained using a water immersion lens (40×) and identical instrument settings.

human lymphocytes [2] = assay: E. coli bacterial-induced lymphocyte apoptosis, staining for active caspase 3; format: cell-based; conditions: human lymphocytes, live E. coli ~5 hours
Method: (§1) Thymocytes and splenocytes were obtained from CLP and sham-treated mice ˜20 hours postoperatively. The APO-BRDU™ kit (Phoenix Flow Systems, San Diego, Calif.) was employed for flow cytometric quantitation of TUNEL. Antibodies to active caspase 3 (Cell Signaling—Catalog #9664) were used in the flow cytometry and/or TUNEL assay.
Lymphocytes were harvested from peripheral blood obtained from 6 healthy volunteers using a ficol gradient separation technique. Approximately 1×10^6 lymphocytes were plated in individual transwell containers. E. coli bacteria (strain ATCC 25922), that had been grown overnight in trypticase soy broth were added to a separate compartment of the transwell chamber separated from direct contact with the lymphocytes by a 0.02 micron filter (25 μl of bacteria at 3×10^9 CFUs added to 1 ml volume.

[3] = system: sepsis-induced lymphocyte apoptosis; assay: Cecal ligation and puncture (CLP) sepsis model, lymphocyte apoptosis by active caspase 3; format: in vivo, C57BL6/J mice; conditions: mice, 1 mg by mini-osmotic pump plus additional 9.5 mg dose i.p.
Method: C57BL6/J male mice were housed for at least one week before manipulations. Mice were anesthetized with halothane and an abdominal incision was performed. The cecum was identified, ligated, and punctured with a #30 gauge needle. The abdomen was closed in two layers and 1 cc of 0.9% saline was administered subcutaneously.
as §1
The pumps were implanted approximately 3 hours prior to CLP because it requires ˜3 hours for pumps to activate and deliver steady state levels of compound.
The pumps were not activated until approximately three hours after implantation. […] Spleens, thymi and blood were harvested and examined for apoptosis via staining for active caspase 3.

Row | Substance | internalization into human lymphocytes (human lymphocytes [1]) | bacterial-induced apoptosis (human lymphocytes [2]; 500 nM) | bacterial-induced apoptosis (human lymphocytes [2]; 1 μM) | sepsis-induced CD3 T cell and B cell apoptosis in the spleen [3]
1 | (d) ac-C(FM)RKKRR-Orn-RRR-β-A-(I)-SNRELVVDFLSYKLSQKGYS-COOH ([dR][dK][dK][dR][dR][dOrn][dR][dR][dR][βAla]SNRELVVDFLSYKLSQKGYS-OH; not fully specified (N-terminus)) [fluorescein conjugated TAT-BH4] | located intracellular | – | – | –
2 | (d)-Ac-RKKRR-Orn-RRR-β-A-(l)-SNRELVVDFLSYKLSQKGYS-COOH (Ac-[dR][dK][dK][dR][dR][dOrn][dR][dR][dR][βAla]SNRELVVDFLSYKLSQKGYS-OH; SMILES CC(=O)N[C@H](CCCNC(=N)N)C(=O)N[C@H](CCCCN)C(=O)N[C@H](CCCCN)C(=O)N[C@H](CCCNC(=N)N)C(=O)N[C@H](CCCNC(=N)N)C(=O)N[C@H](CCCN)C(=O)N[C@H](CCCNC(=N)N)C(=O)N[C@H](CCCNC(=N)N)C(=O)N[C@H](CCCNC(=N)N)C(=O)NCCC(=O)N[C@@H](CO)C(=O)N[C@@H](CC(N)=O)C(=O)N[C@@H](CCCNC(=N)N)C(=O)N[C@@H](CCC(=O)O)C(=O)N[C@@H](CC(C)C)C(=O)N[C@H](C(=O)N[C@H](C(=O)N[C@@H](CC(=O)O)C(=O)N[C@@H](Cc1ccccc1)C(=O)N[C@@H](CC(C)C)C(=O)N[C@@H](CO)C(=O)N[C@@H](Cc1ccc(O)cc1)C(=O)N[C@@H](CCCCN)C(=O)N[C@@H](CC(C)C)C(=O)N[C@@H](CO)C(=O)N[C@@H](CCC(N)=O)C(=O)N[C@@H](CCCCN)C(=O)NCC(=O)N[C@@H](Cc1ccc(O)cc1)C(=O)N[C@@H](CO)C(=O)O)C(C)C)C(C)C) [TAT-BH4] | – | significant decrease | significant decrease | ameliorated the increase
